One assay concerns Na+/K+ ATPase. Briefly: slice based biotinylation, Na+/K+ ATPase surface expression in striatal slices. In kind it is cell-based. Conditions: 100 nM, 20 min, rat striatal slices, vs vehicle. From the text: In addition, the absence of tyrosine hydroxylase (TH, a cytosolic protein found in DAT terminals) from the biotinylated surface fraction serves a control for the integrity of our slice preparation and specificity of the surface signal.

Assay [1] has as its system DAT. Briefly: radiolabeled DA [3H-DA] uptake in striatal slices. In kind it is cell-based. Particulars: 100 nM for 10 min, 3H-DA 10 min, vs vehicle. Here is the method:
Slices were exposed to ^3H-DA for 10 min and then washed to remove excess DA at 4° C. to stop uptake. Slices were homogenized and ^3H-DA quantified by a scintillation counter.

Assay [2] relates to DAT. Briefly: chronoamperometry of AMPH-induced DA efflux in striatal slices. Particulars: pretreatment 100 nM for 20 min, AMPH 10 μM. Type of assay: cell-based. From the text: Chronoamperometry was used to evaluate AMPH-induced DA efflux in striatal slices.
The next assay deals with T1, GLP-1 receptor (Rattus norvegicus, UniProt P32301).
T1 construct: from tissue; host or cells: whole animal (in vivo, i.p. dosing)
T1 sequence (P32301 22-463): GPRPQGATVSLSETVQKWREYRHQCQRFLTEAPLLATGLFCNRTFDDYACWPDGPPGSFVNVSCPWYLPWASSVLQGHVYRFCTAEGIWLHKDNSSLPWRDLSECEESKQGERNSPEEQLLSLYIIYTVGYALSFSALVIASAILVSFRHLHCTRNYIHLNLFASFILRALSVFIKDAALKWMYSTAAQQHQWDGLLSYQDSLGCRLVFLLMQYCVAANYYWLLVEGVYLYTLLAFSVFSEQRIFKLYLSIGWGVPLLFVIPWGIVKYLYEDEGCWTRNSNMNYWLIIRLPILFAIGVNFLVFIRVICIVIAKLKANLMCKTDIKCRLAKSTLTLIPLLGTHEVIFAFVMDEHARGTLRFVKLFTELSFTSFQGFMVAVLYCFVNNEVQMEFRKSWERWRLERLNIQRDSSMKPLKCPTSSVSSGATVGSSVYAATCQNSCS
Briefly: locomotor activity with or without AMPH. In kind it is in vivo.

For the substance Glucagon-like peptide-1 [GLP-1], the “surface expression of the Na+/K+ ATPase” value in the assay on Na+/K+ ATPase is “did not affect”. The “DA uptake (3H-DA)” value in the assay on DAT [1] is “significantly increased”. The “AMPH-induced increase in extracellular DA” value with DAT [2] is on record as “significantly potentiates”.
Regarding exendin-4 [EX4], the AMPH-induced locomotor activity entry at GLP-1 receptor (30 μg/kg i.p. 90 min prior to AMPH 2.78 mg/Kg i.p.) is “significantly decreased”. Further, at GLP-1 receptor (30 μg/kg i.p., absence of AMPH), the basal locomotion result is recorded as “significantly decreased”.

These data come from patent publication US20120021979A1 (Vanderbilt University, priority 2010, published 2012).
